Source: patent US7972780B2, “ITPase gene polymorphisms associated with adverse drug reactions to azathioprine therapy” (Guy's and St. Thomas' NHS Foundation Trust, priority 2004, dated 2011)
Read-outs that look alike come from different tables or passages of the source.

Assays:
patients = settings: Dubinsky et al. 2001; cited from earlier work
[1] = system: Caucasian patients with IBD; settings: for Odds ratio, All side effects: ADR n = 62 vs controls n = 68; for Odds ratio, Hepatotoxicity / Odds ratio, Other: n = 4 vs controls; for Odds ratio, Neutropenia: n = 11 vs controls; for Odds ratio, Flu-like symptoms: n = 16 vs controls
[2] = ITPA 94C>A, TPMT heterozygous genotypes excluded

Q: Which “use in patients with 6-MP/AZA-related toxicity” value (patients) does the source give for Nc1nc2nc[nH]c2c(=S)[nH]1 [thioguanine, 6-thioguanine] here?
A: used successfully

Q: Which “Odds ratio, Rash” value (IBD patients; ITPA 94C>A, 6 patients) does the source give for Cn1cnc([N+](=O)[O-])c1Sc1ncnc2nc[nH]c12 [azathioprine] here?
A: 10.833

Q: What about the “Odds ratio, flu-like symptoms” value (IBD patients; ITPA 94C>A, 11 patients) of the same compound?
A: 6.190

Q: What about the “Odds ratio, adverse drug reactions to AZA therapy” value (IBD patients; ITPA 94C>A, 64 ADR patients vs 71 without side-effects, dominant model) of the same compound?
A: 4.239

Q: And the “Odds ratio, Nausea and vomiting” value (IBD patients; variant TPMT genotypes, subset of 14 patients)?
A: 5.079

Q: And the “Odds ratio, All side effects” value ([1]; ITPA 94C > A variant genotype)?
A: 4.2

Q: What about the “Odds ratio, Hepatotoxicity” value ([1]; ITPA 94C > A) of the same compound?
A: 10.3

Q: What about the “Odds ratio, Other” value ([1]; ITPA 94C > A) of the same compound?
A: 3.4

Q: And the “Odds ratio, Rash” value ([1]; ITPA 94C > A, n = 6 vs controls)?
A: 10.3

Q: And the “Odds ratio, Pancreatitis” value ([1]; ITPA 94C > A, n = 8 vs controls)?
A: 6.2

Q: And the “Odds ratio, Neutropenia” value ([1]; ITPA 94C > A)?
A: 1.0

Q: What about the “Odds ratio, Nausea and vomiting” value ([1]; ITPA 94C > A, n = 13 vs controls) of the same compound?
A: 3.1

Q: And the “Odds ratio, Flu-like symptoms” value ([1]; ITPA 94C > A)?
A: 4.7

Q: What about the “Odds ratio, Nausea and vomiting” value [1, 2] of the same compound?
A: 6.2

Q: What about the “Odds ratio, Pancreatitis” value [1, 2] of the same compound?
A: 7.8

Q: And the “Odds ratio, Rash” value [1, 2]?
A: 15.5

Q: What about the “Odds ratio, adverse drug reactions” value ([1]; ITPA 94C>A, TPMT heterozygous genotypes excluded from side-effect cohort) of the same compound?
A: 5.3

Q: What about the “Odds ratio, All side effects” value ([1]; ITPA IVS2 + 21A > C variant genotype) of the same compound?
A: 0.7

Q: And the “Odds ratio, Hepatotoxicity” value ([1]; ITPA IVS2 + 21A > C)?
A: 0.5

Q: And the “Odds ratio, Other” value ([1]; ITPA IVS2 + 21A > C)?
A: 4.2

Q: And the “Odds ratio, Rash” value ([1]; ITPA IVS2 + 21A > C, n = 6 vs controls)?
A: 0.9

Q: What about the “Odds ratio, Pancreatitis” value ([1]; ITPA IVS2 + 21A > C, n = 8 vs controls) of the same compound?
A: 0.6

Q: What about the “Odds ratio, Neutropenia” value ([1]; ITPA IVS2 + 21A > C) of the same compound?
A: 0.4

Q: What about the “Odds ratio, Nausea and vomiting” value ([1]; ITPA IVS2 + 21A > C, n = 13 vs controls) of the same compound?
A: 0.4

Q: And the “Odds ratio, Flu-like symptoms” value ([1]; ITPA IVS2 + 21A > C)?
A: 1.0

Q: And the “Odds ratio, All side effects” value ([1]; TPMT *3A + C variant genotype)?
A: 1.7

Q: And the “Odds ratio, Hepatotoxicity” value ([1]; TPMT *3A + C)?
A: 2.9

Q: What about the “Odds ratio, Rash” value ([1]; TPMT *3A + C, n = 6 vs controls) of the same compound?
A: 4.4

Q: What about the “Odds ratio, Pancreatitis” value ([1]; TPMT *3A + C, n = 8 vs controls) of the same compound?
A: 1.3

Q: And the “Odds ratio, Neutropenia” value ([1]; TPMT *3A + C)?
A: 0.9

Q: And the “Odds ratio, Nausea and vomiting” value ([1]; TPMT *3A + C, n = 13 vs controls)?
A: 5.5

Q: What about the “Odds ratio, Flu-like symptoms” value ([1]; TPMT *3A + C) of the same compound?
A: 0.3

Q: And the “Odds ratio, risk of experiencing an adverse drug reaction” value ([1]; TPMT and ITPA 94C>A genotypes combined)?
A: 3.5

Q: And the “patients remaining intolerant on re-challenge with reduced dose” value ([1]; of the 4 re-challenged patients heterozygous for a variant TPMT allele)?
A: two patients remained intolerant

Q: What about the “patients in whom therapy could be continued at full dose” value ([1]; of the 62 patients suffering adverse drug reactions) of the same compound?
A: 5

Q: What about the “patients who tolerated a reduced dose” value ([1]; patients with ITPA 94C>A alleles) of the same compound?
A: 3 of 6
